The source of these data is patent US9499548B2, “Inhibitors of bruton's tyrosine kinase” (Hoffmann-La Roche Inc., priority 2012, dated 2016).

For this assay, the system named is B cell receptor-mediated activation of B cells in human blood (CD69 expression). Nature of the assay: Inhibition of B cell activation in whole blood measured by CD69 expression. Type of assay: cell-based. As to conditions: anti-IgM stimulation, 20 hours, concentration decreasing by 50% the CD69-positive cells that are also CD20-positive. The method, then:
Inhibition of B Cell Activation in Whole Blood Measured by CD69 Expression
A procedure to test the ability of Btk inhibitors to suppress B cell receptor-mediated activation of B cells in human blood is as follows:
Human whole blood (HWB) is obtained from healthy volunteers, with the following restrictions: 24 hr drug-free, non-smokers. Blood is collected by venipuncture into Vacutainer tubes anticoagulated with sodium heparin. Test compounds are diluted to ten times the desired starting drug concentration in PBS (20×), followed by three-fold serial dilutions in 10% DMSO in PBS to produce a nine point dose-response curve. 5.5 μl of each compound dilution is added in duplicate to a 2 ml 96-well V bottom plate (Analytical Sales and Services, #59623-23); 5.5 μl of 10% DMSO in PBS is added to control and no-stimulus wells. HWB (100 μl) is added to each well, and after mixing the plates are incubated at 37 C, 5% CO2, 100% humidity for 30 minutes. Goat F(ab′)2 anti-human IgM (Southern Biotech, #2022-14) (10 μl of a 500 μg/ml solution, 50 μg/ml final concentration) is added to each well (except the no-stimulus wells) with mixing and the plates are incubated for an additional 20 hours.
At the end of the 20 hour incubation, samples are incubated with florescent-probe-labeled antibodies (15 μl PE Mouse anti-Human CD20, BD Pharmingen, #555623, and/or 20 ul APC Mouse anti-Human CD69, BD Pharmingen #555533) for 30 minutes, at 37 C, 5% CO2, 100% humidity. Included are induced control, unstained and single stains for compensation adjustments and initial voltage settings. Samples are then lysed with 1 ml of 1× Pharmingen Lyse Buffer (BD Pharmingen #555899), and plates are centrifuged at 1800 rpm for 5 minutes. Supernatants are removed via suction and the remaining pellets are lysed again with another 1 ml of 1× Pharmingen Lyse Buffer, and plates are spun down as before. Supernatants are aspirated and remaining pellets are washed in FACs buffer (PBS+1% FBS). After a final spin, the supernatants are removed and pellets are resuspended in 180 μl of FACs buffer. Samples are transferred to a 96 well plate suitable to be run on the HTS 96 well system on the BD LSR II flow cytometer.
Using appropriate excitation and emission wavelengths for the fluorophores used, data are acquired and percent positive cell values are obtained using Cell Quest Software. Results are initially analyzed by FACS analysis software (Flow Jo). […] The IC50 values are calculated using XLfit software version 3, equation 201.
Representative compound data for this assay are listed below in Table II.

Take `CN1CCn2nc(Nc3cc(-c4cccc(-n5ncc6cc(C(C)(C)C)ccc6c5=O)c4CO)nn(C)c3=O)cc2C1` [Compound I-8, 6-tert-Butyl-2-{2-hydroxymethyl-3-[1-methyl-5-(5-methyl-4,5,6,7-tetrahydro-pyrazolo[1,5-a]pyrazin-2-ylamino)-6-oxo-1,6-dihydro-pyridazin-3-yl]-phenyl}-2H-phthalazin-1-one]: the IC50 was found to be 42 nM.
As for `Cn1nc(-c2cccc(-n3ncc4cc(C(C)(C)C)ccc4c3=O)c2CO)cc(Nc2ccc(OC(C)(C)CN3CC(F)(F)C3)cn2)c1=O` [Compound I-14, 6-tert-Butyl-2-[3-(5-{5-[2-(3,3-difluoro-azetidin-1-yl)-1,1-dimethyl-ethoxy]-pyridin-2-ylamino}-1-methyl-6-oxo-1,6-dihydro-pyridazin-3-yl)-2-hydroxymethyl-phenyl]-2H-phthalazin-1-one], the figure is 573 nM; as for `CCN1CCC(c2ccc(Nc3cc(-c4cccc(-n5ncc6cc(C(C)(C)C)ccc6c5=O)c4CO)nn(C)c3=O)nc2)CC1` [Compound I-9, 6-tert-Butyl-2-{3-[5-(1′-ethyl-1′,2′,3′,4′,5′,6′-hexahydro-[3,4′]bipyridinyl-6-ylamino)-1-methyl-6-oxo-1,6-dihydro-pyridazin-3-yl]-2-hydroxymethyl-phenyl}-2H-phthalazin-1-one], 45 nM; as for `CN1CCC(c2ccc(Nc3cc(-c4cccc(N5CCc6cc(C(C)(C)C#N)ccc6C5=O)c4CO)nn(C)c3=O)nc2)CC1` [Compound I-15, 2-(2-{2-Hydroxymethyl-3-[1-methyl-5-(1′-methyl-1′,2′,3′,4′,5′,6′-hexahydro-[3,4′]bipyridinyl-6-ylamino)-6-oxo-1,6-dihydro-pyridazin-3-yl]-phenyl}-1-oxo-1,2,3,4-tetrahydro-isoquinolin-6-yl)-2-methyl-propionitrile], 198 nM.
`Cn1nc(-c2cccc(-n3ncc4cc(C(C)(C)C)ccc4c3=O)c2CO)cc(Nc2ccc(C3CCN(C4COC4)CC3)cn2)c1=O` [Compound I-13, 6-tert-Butyl-2-{2-hydroxymethyl-3-[1-methyl-5-(1′-oxetan-3-yl-1′,2′,3′,4′,5′,6′-hexahydro-[3,4′]bipyridinyl-6-ylamino)-6-oxo-1,6-dihydro-pyridazin-3-yl]-phenyl}-2H-phthalazin-1-one]: the midpoint of inhibition, the IC50, lay at 188 nM. The IC50 values of the last two molecules are within 1.5-fold of each other.
`CN1CC[C@H](c2ccc(Nc3cc(-c4cccc(-n5ncc6cc(C(C)(C)C)ccc6c5=O)c4CO)nn(C)c3=O)nc2)C1` [Compound I-6, 6-tert-Butyl-2-(2-hydroxymethyl-3-{1-methyl-5-[5-((R)-1-methyl-pyrrolidin-3-yl)-pyridin-2-ylamino]-6-oxo-1,6-dihydro-pyridazin-3-yl}-phenyl)-2H-phthalazin-1-one]: the IC50 is 36 nM.
On to `CN1CCC[C@H]1c1ccc(Nc2cc(-c3cccc(-n4ncc5cc(C(C)(C)C)ccc5c4=O)c3CO)nn(C)c2=O)nc1` [Compound I-4, 6-tert-Butyl-2-(2-hydroxymethyl-3-{1-methyl-5-[5-((S)-1-methyl-pyrrolidin-2-yl)-pyridin-2-ylamino]-6-oxo-1,6-dihydro-pyridazin-3-yl}-phenyl)-2H-phthalazin-1-one], for which the IC50 worked out at 32 nM. The IC50 values of the last two molecules are within 1.5-fold of each other.
Molecule `Cn1nc(Nc2cc(-c3cccc(-n4ncc5cc(C(C)(C)C)ccc5c4=O)c3CO)nn(C)c2=O)cc1CN1CCC1` [Compound I-3, 2-{3-[5-(5-Azetidin-1-ylmethyl-1-methyl-1H-pyrazol-3-ylamino)-1-methyl-6-oxo-1,6-dihydro-pyridazin-3-yl]-2-hydroxymethyl-phenyl}-6-tert-butyl-2H-phthalazin-1-one] displayed an IC50 of 30 nM.
Take `Cn1nc(-c2cccc(-n3ncc4cc(C(C)(C)C#N)ccc4c3=O)c2CO)cc(Nc2ccc(OC(C)(C)CN3CCC3)cn2)c1=O` [Compound I-11, 2-[2-(3-{5-[5-(2-Azetidin-1-yl-1,1-dimethyl-ethoxy)-pyridin-2-ylamino]-1-methyl-6-oxo-1,6-dihydro-pyridazin-3-yl}-2-hydroxymethyl-phenyl)-1-oxo-1,2-dihydro-phthalazin-6-yl]-2-methyl-propionitrile]: the IC50 came to 135 nM. Compared with the last molecule, the IC50 is about 4.5-fold higher.
As for `Cn1nc(-c2cccc(-n3ncc4cc(C(C)(C)C)ccc4c3=O)c2CO)cc(Nc2ccc(C(=O)N3CCOCC3)cn2)c1=O` [Compound I-10, 6-tert-Butyl-2-(2-hydroxymethyl-3-{1-methyl-5-[5-(morpholine-4-carbonyl)-pyridin-2-ylamino]-6-oxo-1,6-dihydro-pyridazin-3-yl}-phenyl)-2H-phthalazin-1-one], the figure is 47 nM; as for `Cn1nc(-c2cccc(-n3ncc4cc(C(C)(C)C)ccc4c3=O)c2CO)cc(Nc2ccc(OC(C)(C)CNCCCO)cn2)c1=O` [Compound I-12, 6-tert-Butyl-2-[2-hydroxymethyl-3-(5-{5-[2-(3-hydroxy-propylamino)-1,1-dimethyl-ethoxy]-pyridin-2-ylamino}-1-methyl-6-oxo-1,6-dihydro-pyridazin-3-yl)-phenyl]-2H-phthalazin-1-one], 187 nM.
The value for `Cn1nc(-c2cccc(-n3ncc4cc(C(C)(C)C)ccc4c3=O)c2CO)cc(Nc2ccc(OC(C)(C)CN3CCC3)cn2)c1=O` [Compound I-1, 2-(3-{5-[5-(2-Azetidin-1-yl-1,1-dimethyl-ethoxy)-pyridin-2-ylamino]-1-methyl-6-oxo-1,6-dihydro-pyridazin-3-yl}-2-hydroxymethyl-phenyl)-6-tert-butyl-2H-phthalazin-1-one] was 6 nM; that for `CN1CCC(c2ccc(Nc3cc(-c4cccc(-n5ncc6cc(C(C)(C)C)ccc6c5=O)c4CO)nn(C)c3=O)nc2)CC1` [Compound I-2, 6-tert-Butyl-2-{2-hydroxymethyl-3-[1-methyl-5-(1′-methyl-1′,2′,3′,4′,5′,6′-hexahydro-[3,4′]bipyridinyl-6-ylamino)-6-oxo-1,6-dihydro-pyridazin-3-yl]-phenyl}-2H-phthalazin-1-one] was 10 nM.
In the case of `CN1CCC(c2ccc(Nc3cc(-c4cccc(-n5ncc6cc(C(C)(C)C#N)ccc6c5=O)c4CO)nn(C)c3=O)nc2)CC1` [Compound I-7, 2-(2-{2-Hydroxymethyl-3-[1-methyl-5-(1′-methyl-1′,2′,3′,4′,5′,6′-hexahydro-[3,4′]bipyridinyl-6-ylamino)-6-oxo-1,6-dihydro-pyridazin-3-yl]-phenyl}-1-oxo-1,2-dihydro-phthalazin-6-yl)-2-methyl-propionitrile], half-maximal inhibition (IC50) was put at 38 nM.
As for `CN1CC[C@@H](c2ccc(Nc3cc(-c4cccc(-n5ncc6cc(C(C)(C)C)ccc6c5=O)c4CO)nn(C)c3=O)nc2)C1` [Compound I-5, 6-tert-Butyl-2-(2-hydroxymethyl-3-{1-methyl-5-[5-((S)-1-methyl-pyrrolidin-3-yl)-pyridin-2-ylamino]-6-oxo-1,6-dihydro-pyridazin-3-yl}-phenyl)-2H-phthalazin-1-one], the figure is 35 nM.

One may read the IC50 as the concentration needed to halve the response being measured. High values mean weaker potency, low ones greater potency.
